This assay concerns SMN protein. Nature of the assay: cellular SMN ELISA (SMN protein elevation) in myoblast cell line from SMNdelta7 mouse model. The assay is classed as cell-based. As for the experimental part:
A cellular SMN ELISA was used to measure the effects of low molecular weight compounds on SMN protein elevation. Cells from a myoblast cell line derived from the SMNdelta7 mouse model (kind gift from Steve Burden, NYU) were seeded into a 384-well plate at a density of 3000 cells/well and treated with compounds for 24 hours. ELISA capture plates were prepared by coating 384-well plates (Immulon 4HBX) with 0.5 ug/mL of anti-SMN mAb (BD Science, Catalog number 610647) at 4° C. overnight. The plates were washed 5 times with 110 uL of PBS-Tween (0.05% Tween-20, PBST), blocked with 100 uL of 1% BSA in PBST for 2 hours and washed (5 times) with 100 uL of PBST. After 24 hours of compound treatment cells were lysed in a modified RIPA-buffer, on ice for 1 hour. 20 uL of lysate and 20 uL of 1% BSA were then added to the ELISA capture plates and incubated at 4° C. overnight. Plates were washed (5 times) with PBST and then incubated with 1:100 dilution of primary rabbit anti-SMN polyclonal antibody (Santa cruz, Catalog number SC-15320) at room temperature for 1 hour and subsequently washed (5 times) with 110 uL of PBST. This was followed by addition of 1:100 Goat anti-Rabbit IgG-HRP linked (Cell Signaling, Catalog number 7074) secondary antibody for 1 hour. Plates were then washed with PBST and incubated with 40 uL TMB substrate (Cell Signaling, Catalog number 7004 L) at room temperature for 1-10 minutes with shaking. The reaction was stopped by addition of 40 uL of stop solution (Cell signaling, Catalog number 7002 L) and absorption was measured at 450 nm. Data was reported as fold activation over DMSO control, and EC50.
ELISA assay condition 1: compound concentration range 20 nM-10 uM; ELISA assay condition 2: compound concentration 100 pM-10 uM. Data generated in Biological Example 1 using ELISA conditions 1 or 2.
For orientation: An ELISA detects its analyte on a solid surface through an enzyme-linked reagent.

Setting [1] is: Biological Example 1, SMN ELISA, SMNdelta7 mouse myoblasts, 24 hours compound treatment.
The mark [2] stands for this setting: Biological Example 1, SMN ELISA, SMNdelta7 mouse myoblasts, 24 hours compound treatment, read-out: SMN Activity (EC50).
Where [3] appears, read: comparison of unsubstituted, ortho-hydroxy and ortho-alkoxy pyridazines, as in Biological Example 1.
[4] abbreviates: comparison of unsubstituted, ortho-hydroxy and ortho-alkoxy pyridazines, as in Biological Example 1, read-out: SMN ELISA EC50.

Read-outs that look alike come from different tables or passages of the source.

Usually EC50 stands for the midpoint of the concentration-response curve. As to `Cc1cnc2cc(O)c(-c3ccc(N(C)C4CC(C)(C)NC(C)(C)C4)nn3)cc2n1` [Example 18-2, 2-methyl-7-(6-(methyl(2,2,6,6-tetramethylpiperidin-4-yl)amino)pyridazin-3-yl)quinoxalin-6-ol], the “SMN Activity (fold activation over DMSO control)” value under setting [1] is 3.31 fold. The EC50 under setting [2] is 0.009 µM.
The corresponding values for `CN(c1ccc(-c2cc3c(Cl)ccnc3cc2O)nn1)C1CC(C)(C)NC(C)(C)C1` [Preparation 12, 4-chloro-6-(6-(methyl(2,2,6,6-tetramethylpiperidin-4-yl)amino)pyridazin-3-yl)quinolin-7-ol] are 2.6 fold and 0.03 µM.
The corresponding values for `CN(c1ccc(-c2cc3c(C(N)=O)nccc3cc2O)nn1)C1CC(C)(C)NC(C)(C)C1` [Example 26-4, 6-hydroxy-7-(6-(methyl(2,2,6,6-tetramethylpiperidin-4-yl)amino)pyridazin-3-yl)isoquinoline-1-carboxamide] are 2.57 fold and 0.007 µM.
For `CC1(C)CC(Oc2ccc(-c3cc4cnccc4cc3O)nn2)CC(C)(C)N1` [Example 3-3, 7-(6-((2,2,6,6-tetramethylpiperidin-4-yl)oxy)pyridazin-3-yl)isoquinolin-6-ol], in that order: 2.5 fold and 0.083 µM.
On to `CN1C[C@@H]2CN(c3ccc(-c4cc5cnccc5cc4O)nn3)C[C@@H]2C1` [Example 3-4, 7-(6-((3aR,6aS)-5-methylhexahydropyrrolo[3,4-c]pyrrol-2(1H)-yl)pyridazin-3-yl)isoquinolin-6-ol], for which the “SMN Activity (fold activation over DMSO control)” value under setting [1] is 2.3 fold. The EC50 under setting [2] came to 0.06 µM.
On to `Cc1cc(N(C)C)c2cc(-c3ccc(N(C)C4CC(C)(C)NC(C)(C)C4)nn3)c(O)cc2n1` [Example 10-4, 4-(Dimethylamino)-2-methyl-6-(6-(methyl(2,2,6,6-tetramethylpiperidin-4-yl)amino)pyridazin-3-yl)quinolin-7-ol], for which the “SMN Activity (fold activation over DMSO control)” value under setting [1] worked out at 2.7 fold. For the same molecule, the EC50 under setting [2] came out at 0.012 µM.
Take `N#Cc1ccc2cc(O)c(-c3ccc(N4CCNCC4)nn3)cc2n1` [Example 27-1, 6-hydroxy-7-(6-(piperazin-1-yl)pyridazin-3-yl)quinoline-2-carbonitrile]: the “SMN Activity (fold activation over DMSO control)” value under setting [1] was determined as 2.49 fold. For the same molecule, the EC50 under setting [2] worked out at 0.046 µM.
For `Cc1cc2cc(O)c(-c3ccc(N(C)C4CC(C)(C)NC(C)(C)C4)nn3)cc2cn1` [Example 36-2, 3-methyl-7-(6-(methyl(2,2,6,6-tetramethylpiperidin-4-yl)amino)-pyridazin-3-yl)isoquinolin-6-ol], in that order: 2.64 fold and 0.009 µM.
With `CN(c1ccc(-c2cc3cc(C#N)cnc3cc2O)nn1)C1CC(C)(C)NC(C)(C)C1` [Example 7-3, 7-hydroxy-6-(6-(methyl(2,2,6,6-tetramethylpiperidin-4-yl)amino)pyridazin-3-yl)quinoline-3-carbonitrile], under setting [1], the “SMN Activity (fold activation over DMSO control)” value was determined as 3.1 fold. The EC50 under setting [2] amounted to 0.008 µM.
In the case of `CN(c1ccc(-c2cc3nc(C(N)=O)ccc3cc2O)nn1)C1CC(C)(C)NC(C)(C)C1` [Example 26-6, 6-hydroxy-7-(6-(methyl(2,2,6,6-tetramethylpiperidin-4-yl)amino)pyridazin-3-yl)quinoline-2-carboxamide], the “SMN Activity (fold activation over DMSO control)” value under setting [1] was determined as 2.6 fold. For the same molecule, the concentration giving a half-maximal response (EC50) under setting [2] is 0.007 µM.
The corresponding values for `Cc1cc(N2CCOCC2)c2cc(-c3ccc(N(C)C4CC(C)(C)NC(C)(C)C4)nn3)c(O)cc2n1` [Example 10-3, 2-Methyl-6-(6-(methyl(2,2,6,6-tetramethylpiperidin-4-yl)amino)pyridazin-3-yl)-4-morpholinoquinolin-7-ol] are 2.6 fold and 0.11 µM.
Take `CN(c1ccc(-c2cc3ccncc3cc2O)nn1)C1CC(C)(C)NC(C)(C)C1` [Example 4-1, 6-(6-(methyl(2,2,6,6-tetramethylpiperidin-4-yl)amino)pyridazin-3-yl)isoquinolin-7-ol]: the “SMN Activity (fold activation over DMSO control)” value under setting [1] was found to be 2.6 fold. Also, the EC50 is 0.006 µM under setting [2] and 0.006 µM under setting [4]. The molecule also showed a Fold activation under setting [3] of 2.6.
Turning to `CN(c1ccc(-c2cc3c(=O)nc[nH]c3cc2O)nn1)C1CC(C)(C)NC(C)(C)C1` [Example 22-1, 7-hydroxy-6-(6-(methyl(2,2,6,6-tetramethylpiperidin-4-yl)amino)pyridazin-3-yl)quinazolin-4(1H)-one], the “SMN Activity (fold activation over DMSO control)” value under setting [1] worked out at 2.58 fold. The EC50 under setting [2] was 0.11 µM.
The corresponding values for `Cc1cc2cc(O)c(-c3ccc(N4CCNCC4)nn3)cc2cn1` [Example 37-1, 3-methyl-7-(6-(piperazin-1-yl)pyridazin-3-yl)isoquinolin-6-ol] are 2.33 fold and 0.124 µM.
The corresponding values for `Cc1cc(C2CCOCC2)c2cc(-c3ccc(N(C)C4CC(C)(C)NC(C)(C)C4)nn3)c(O)cc2n1` [Example 20-5, 2-methyl-6-(6-(methyl(2,2,6,6-tetramethylpiperidin-4-yl)amino)pyridazin-3-yl)-4-(tetrahydro-2H-pyran-4-yl)quinolin-7-ol] are 2.69 fold and 0.286 µM.
The corresponding values for `Oc1cc2cccnc2cc1-c1ccc(C2=CCNCC2)nn1` [Example 28-1, 7-(6-(1,2,3,6-tetrahydropyridin-4-yl)pyridazin-3-yl)quinolin-6-ol] are 1.9 fold and 0.155 µM.
`CN(c1ccc(-c2cc3ccc(=O)n(C)c3cc2O)nn1)C1CC(C)(C)NC(C)(C)C1` [Example 9-2, 7-hydroxy-1-methyl-6-(6-(methyl(2,2,6,6-tetramethylpiperidin-4-yl)amino)pyridazin-3-yl)quinolin-2(1H)-one]: the “SMN Activity (fold activation over DMSO control)” value under setting [1] was 2.25 fold. Moreover, the EC50 under setting [2] was found to be 0.007 µM.
For `CN(c1ccc(-c2cc3ccc(C#N)nc3cc2O)nn1)C1CC(C)(C)NC(C)(C)C1` [Example 26-2, 7-hydroxy-6-(6-(methyl(2,2,6,6-tetramethylpiperidin-4-yl)amino)pyridazin-3-yl)quinoline-2-carbonitrile], in that order: 3.14 fold and 0.007 µM.
Take `CN(c1ccc(-c2ccc3cccnc3c2)nn1)C1CC(C)(C)NC(C)(C)C1` [drawing 136 R = H]: the Fold activation under setting [3] was 2.5. Besides, under setting [4], the EC50 is 0.37 µM.
For the molecule `CN(c1ccc(-c2cc3ccc(=O)[nH]c3cc2O)nn1)C1CC(C)(C)NC(C)(C)C1` [Example 9-1, 7-hydroxy-6-(6-(methyl(2,2,6,6-tetramethylpiperidin-4-yl)amino)pyridazin-3-yl)quinolin-2(1H)-one], the “SMN Activity (fold activation over DMSO control)” value under setting [1] stood at 2.25 fold. For the same molecule, under setting [2], the EC50 was determined as 0.03 µM.
For `CN(c1ccc(-c2cc3cnc(-c4ccccc4)cc3cc2O)nn1)C1CC(C)(C)NC(C)(C)C1` [Example 36-1, 7-(6-(methyl(2,2,6,6-tetramethyl-piperidin-4-yl)amino)-pyridazin-3-yl)-3-phenylisoquinolin-6-ol], in that order: 2.32 fold and 0.282 µM.
`CN(c1ccc(-c2c(O)ccc3cccnc23)nn1)C1CC(C)(C)NC(C)(C)C1` [Example 5-1, 8-(6-(methyl(2,2,6,6-tetramethylpiperidin-4-yl)amino)pyridazin-3-yl)quinolin-7-ol]: under setting [1], the “SMN Activity (fold activation over DMSO control)” value stood at 2.6 fold. In addition, the EC50 under setting [2] came to 0.3 µM.
Under setting [3], `CN(c1ccc(-c2ccc3cnccc3c2)nn1)C1CC(C)(C)NC(C)(C)C1` [drawing 138 R = H] returned a Fold activation of 2.7. In addition, the EC50 under setting [4] came to 0.32 µM.
With `Cc1nccc2cc(O)c(-c3ccc(N(C)C4CC(C)(C)NC(C)(C)C4)nn3)cc12` [Example 29-2, 1-methyl-7-(6-(methyl(2,2,6,6-tetramethylpiperidin-4-yl)amino)pyridazin-3-yl)isoquinolin-6-ol], under setting [1], the “SMN Activity (fold activation over DMSO control)” value was 2.53 fold. The EC50 under setting [2] stood at 0.009 µM.
Consider `CN1C(=O)CCc2cc(-c3ccc(N(C)C4CC(C)(C)NC(C)(C)C4)nn3)c(O)cc21` [Example 24-1, 7-hydroxy-1-methyl-6-(6-(methyl(2,2,6,6-tetramethylpiperidin-4-yl)amino)pyridazin-3-yl)-3,4-dihydroquinolin-2(1H)-one], for which, under setting [1], the “SMN Activity (fold activation over DMSO control)” value turned out to be 1.74 fold. Besides, under setting [2], the EC50 turned out to be 0.071 µM.

The values above are taken from US11672799B2, “1,4-disubstituted pyridazine quinolne analogs there of and methods for treating SMN-deficiency-related conditions” (Novartis AG, priority 2013, dated 2023).
